Holding throughout (format): functional, cell-based
One test relates to A549. Description: Cytotoxicity against human A549 cells after 72 hrs by SRB assay. Conditions: A549, 72 h.
A further test deals with MDA-MB-231. As to the kind of experiment: Cytotoxicity against human MDA-MB-231 cells after 72 hrs by SRB assay. Conditions: MDA-MB-231, 72 h.
Another test concerns KB. As to the kind of experiment: Cytotoxicity against human KB cells after 72 hrs by SRB assay.
The subject of a further test is MCF7. Description: Cytotoxicity against human MCF7 cells after 72 hrs by SRB assay. As to conditions: MCF7, 72 h.
Test [1] in a line: Cytotoxicity against human KBVIN cells after 72 hrs by SRB assay.

Take `CC[C@@]1(O)C(=O)OCc2c1cc1n(c2=O)Cc2c-1nc1ccccc1c2CN1CCN(/C(Cc2ccccc2)=N\S(=O)(=O)c2cccs2)CC1`: the IC50 is 650 nM in the test with A549; 3990 nM in the test with MDA-MB-231; 590 nM in the test on KB; 1250 nM in the test on MCF7; 1270 nM in test [1].

In the case of `CC[C@@]1(O)C(=O)OCc2c1cc1n(c2=O)Cc2c-1nc1ccccc1c2CN1CCN(/C(Cc2ccc(OC)cc2)=N\S(=O)(=O)c2ccc3ccccc3c2)CC1`, the IC50 came to 740 nM in the test on A549; 9360 nM with MDA-MB-231; 840 nM in the test with KB; 6560 nM in the test on MCF7; 3660 nM in test [1].

With `CC[C@@]1(O)C(=O)OCc2c1cc1n(c2=O)Cc2c-1nc1ccccc1c2CN1CCN(/C(Cc2ccccc2)=N\S(=O)(=O)c2cccnc2)CC1`, the IC50 with A549 was 760 nM; in the test with MDA-MB-231 it was 3840 nM; in the test on KB, 720 nM; with MCF7, 3400 nM; in test [1], 2090 nM.

On to `CC[C@@]1(O)C(=O)OCc2c1cc1n(c2=O)Cc2c-1nc1ccccc1c2CN1CCN(/C(Cc2ccccc2)=N\S(=O)(=O)c2ccc3ccccc3c2)CC1`, for which the IC50 with A549 stood at 3150 nM; in the test on MDA-MB-231, 11300 nM; with KB, 2110 nM; in the test on MCF7 it was 9370 nM; in test [1], 890 nM.

As for `CC[C@@]1(O)C(=O)OCc2c1cc1n(c2=O)Cc2c-1nc1ccccc1c2CN1CCN(/C(Cc2ccc(OC)cc2)=N\S(=O)(=O)c2ccc([N+](=O)[O-])cc2)CC1`, the IC50 in the test on A549 was determined as 2930 nM; in the test on MDA-MB-231, 9750 nM; with KB, 1060 nM; in the test on MCF7, 8360 nM; in test [1] it was 970 nM.

In the case of `CC[C@@]1(O)C(=O)OCc2c1cc1n(c2=O)Cc2c-1nc1ccccc1c2CN1CCN(/C(Cc2ccc(F)cc2)=N\S(=O)(=O)c2cccnc2)CC1`, the IC50 with A549 was 2590 nM; in the test with MDA-MB-231, 6310 nM; with KB it was 6760 nM; in the test on MCF7, 6050 nM; in test [1], 5820 nM.

With `CC[C@@]1(O)C(=O)OCc2c1cc1n(c2=O)Cc2c-1nc1ccccc1c2CN1CCN(/C(Cc2ccc(F)cc2)=N\S(=O)(=O)CC)CC1`, the concentration for half-maximal inhibition (IC50) in the test on A549 stood at 500 nM; with MDA-MB-231, 2510 nM; with KB, 330 nM; in the test with MCF7, 1600 nM; in test [1] it was 970 nM.

With `CC[C@@]1(O)C(=O)OCc2c1cc1n(c2=O)Cc2c-1nc1ccccc1c2CN1CCN(/C(Cc2ccccc2)=N\S(C)(=O)=O)CC1`, the IC50 was 650 nM in the test on A549; 1570 nM with MDA-MB-231; 130 nM in the test on KB; 1590 nM in the test on MCF7; 3820 nM in test [1].

In the case of `CC[C@@]1(O)C(=O)OCc2c1cc1n(c2=O)Cc2c-1nc1ccccc1c2CN1CCN(/C(Cc2ccccc2)=N\S(=O)(=O)c2ccc(Cl)cc2)CC1`, the IC50 was 640 nM in the test on A549; 5010 nM in the test on MDA-MB-231; 740 nM in the test on KB; 3190 nM in the test with MCF7; 1550 nM in test [1].

`CC[C@@]1(O)C(=O)OCc2c1cc1n(c2=O)Cc2c-1nc1ccccc1c2CN1CCN(/C(Cc2ccc(F)cc2)=N\S(=O)(=O)c2ccc([N+](=O)[O-])cc2)CC1`: the IC50 with A549 stood at 630 nM; with MDA-MB-231 it was 3540 nM; in the test on KB, 4430 nM; with MCF7 it was 2180 nM; in test [1], 850 nM.

With `CC[C@@]1(O)C(=O)OCc2c1cc1n(c2=O)Cc2c-1nc1ccccc1c2CN1CCN(/C(Cc2ccc(OC)cc2)=N\S(=O)(=O)c2cccnc2)CC1`, the IC50 is 800 nM in the test with A549; 4960 nM with MDA-MB-231; 880 nM in the test on KB; 4220 nM in the test on MCF7; 2380 nM in test [1].

On to `CC[C@@]1(O)C(=O)OCc2c1cc1n(c2=O)Cc2c-1nc1ccccc1c2CN1CCN(/C(Cc2ccc(F)cc2)=N\S(=O)(=O)c2ccc3ccccc3c2)CC1`, for which the IC50 amounted to 600 nM in the test with A549; 5410 nM in the test with MDA-MB-231; 4720 nM with KB; 4740 nM in the test on MCF7; 380 nM in test [1].

Turning to `CC[C@@]1(O)C(=O)OCc2c1cc1n(c2=O)Cc2c-1nc1ccccc1c2CN1CCN(/C(Cc2ccccc2)=N\S(=O)(=O)CC)CC1`, the IC50 turned out to be 730 nM with A549; 3500 nM in the test on MDA-MB-231; 490 nM in the test on KB; 1900 nM with MCF7; 4290 nM in test [1].

As for `CC[C@@]1(O)C(=O)OCc2c1cc1n(c2=O)Cc2c-1nc1ccccc1c2CN1CCN(/C(Cc2ccccc2)=N\S(=O)(=O)c2ccccc2)CC1`, the IC50 in the test on A549 came out at 650 nM; in the test on MDA-MB-231, 4410 nM; in the test on KB, 630 nM; with MCF7 it was 2250 nM; in test [1], 1770 nM.

As to `CC[C@@]1(O)C(=O)OCc2c1cc1n(c2=O)Cc2c-1nc1ccccc1c2CN1CCN(/C(Cc2ccc(OC)cc2)=N\S(=O)(=O)CC)CC1`, the IC50 was 710 nM in the test on A549; 3810 nM with MDA-MB-231; 470 nM with KB; 2900 nM with MCF7; 2730 nM in test [1].

Regarding `CC[C@@]1(O)C(=O)OCc2c1cc1n(c2=O)Cc2c-1nc1ccccc1c2CN1CCN(/C(Cc2ccc(F)cc2)=N\S(=O)(=O)c2ccc(C)cc2)CC1`, the IC50 is 1770 nM in the test with A549; 6010 nM in the test on MDA-MB-231; 1070 nM in the test with KB; 7040 nM in the test on MCF7; 2770 nM in test [1].

On to `CC[C@@]1(O)C(=O)OCc2c1cc1n(c2=O)Cc2c-1nc1ccccc1c2CN1CCN(/C(Cc2ccc(OC)cc2)=N\S(=O)(=O)c2ccc(C)cc2)CC1`, for which the IC50 turned out to be 740 nM with A549; 5840 nM in the test with MDA-MB-231; 830 nM with KB; 5670 nM in the test on MCF7; 3080 nM in test [1].

As to `CC[C@@]1(O)C(=O)OCc2c1cc1n(c2=O)Cc2c-1nc1ccccc1c2CN1CCN(/C(Cc2ccc(F)cc2)=N\S(=O)(=O)c2ccc(F)cc2)CC1`, the half-inhibitory concentration (IC50) was 4310 nM in the test with A549; 10200 nM in the test with MDA-MB-231; 10100 nM in the test on KB; 8850 nM in the test with MCF7; 1810 nM in test [1].

On to `CCc1c2c(nc3ccc(OC(=O)N4CCC(N5CCCCC5)CC4)cc13)-c1cc3c(c(=O)n1C2)COC(=O)[C@]3(O)CC` [IRINOTECAN], for which the IC50 in the test with A549 is 8310 nM; in the test on MCF7, 11300 nM; in test [1] it was more than 20000 nM.

For `CC[C@@]1(O)C(=O)OCc2c1cc1n(c2=O)Cc2cc3c(CN(C)C)c(O)ccc3nc2-1` [TOPOTECAN], the figures for the IC50 (in the test on A549; in the test with MCF7; in test [1]) were 110 nM, 280 nM and 660 nM, respectively.

These data come from ChEMBL document CHEMBL4043152, “Design, synthesis, and cytotoxic activity of novel 7-substituted camptothecin derivatives incorporating piperazinyl-sulfonylamidine moieties” (Bioorg Med Chem Lett, 2017).
